This is an account of results in patent US6365578B1, “Drug cominbations containing AZT” (Roger Williams General Hospital, priority 1990, dated 2002).

Each structure is given as a SMILES string. Where two headings read alike, the source gives them in different places.

For data set [1], the system named is Balb/C female athymic (nude) mice. Particulars: 4 courses. As for the experimental part: In vivo tests to assess the toxicity of various dosages of AZT and FUra were carried out on Balb/C female athymic (nude) mice.
(§1) The mice were divided into groups of 5-8 animals each and treated with different doses and schedules of FUra, AZT, or both in combination. FUra and AZT were dissolved in normal saline immediately before use and were administered by intraperitoneal bolus injection so that the desired dose was contained in 0.1 ml/10 g animal body weight. FUra was administered in doses corresponding to 80, 90 and 100 mg/kg weekly or 20, 25, and 30 mg/kg for 5 consecutive days with intervening 2 week rest periods. The AZT component was administered at doses of 300 or 600 mg/kg. In those cases where the two components were not administered simultaneously, the FUra component was administered first followed in approximately 2 hours with the AZT component. Toxicity was assessed by determination of mortality, changes in body weight, and changes in white blood cell counts (WBC). Animal body weights were recorded immediately before and twice weekly after initiation of treatment and weight change was calculated as a percentage of the initial body weight. To determine WBC, blood was collected from the orbital sinus in a heparinized Natelson pipette, and after appropriate dilution the cell number was determined electronically one week after each course of therapy. The tests were carried out in duplicate and the pooled number of animals per treatment group was 10-16.
In the control group the mice received no treatment; in group 2 they received 600 mg/kg of AZT; in group 3 they received 85 mg/kg of FUra; in group 4 they received 85 mg/kg of FUra followed at a 2 hour interval by 600 mg/kg of AZT; in group 5 the mice received 100 mg/kg of FUra alone. A total of 4 courses of administration were carried out, each in triplicate, and the pooled number of animals per treatment group corresponded to 23-30.

The test system is the same in data set [2]. Particulars: 2 courses. As for the experimental part:
as §1
A second series of toxicity tests were carried out using a different regimen with similar groups of animals as follows:
Group 1 was treated with 600 mg/kg of AZT for days 3 to 5 inclusive; Group 2 was treated with 20 mg/kg of FUra from days 1 to 5; Group 3 was treated with 20 mg/kg of FUra for days 1 to 5 and with 600 mg/kg of AZT for days 3 to 5; Group 4 was treated with 25 mg/kg of FUra for days 1 to 5. The medication was administered by intraperitoneal bolus, the AZT being administered two hours after FUra. The treatment was repeated every two weeks. A total of 2 courses were administered, the tests being carried out in triplicate and the pool number of animals per treatment group corresponded to 21-30.

The subject of data set [3] is mice. The experiment in a line: LD10 of MTX in mice. Particulars: weekly. The class given is in vivo.

With `Cc1cn([C@H]2C[C@H](N=[N+]=[N-])[C@@H](CO)O2)c(=O)[nH]c1=O` [AZT, 3′-azido-3′-deoxythymidine], the “Mortality (percent dead on day 29 after starting treatment)” value in data set [1] (AZT 600 mg/kg i.p.) worked out at 0%; in data set [2] (AZT 600 mg/kg i.p. days 3 to 5, repeated every two weeks) it was 0%.

`CN(Cc1cnc2nc(N)nc(N)c2n1)c1ccc(C(=O)N[C@@H](CCC(=O)O)C(=O)O)cc1` [MTX, methotrexate]: in data set [3], the LD10 came to 87.5 mg/kg/wk.

For `O=c1[nH]cc(F)c(=O)[nH]1` [FUra, 5-fluorouracil], the “Mortality (percent dead on day 29 after starting treatment)” value in data set [1] (FUra 85 mg/kg i.p.) is listed as 25%; in data set [1] (FUra 100 mg/kg i.p.), 60.8%; in data set [2] (FUra 20 mg/kg i.p. days 1 to 5, repeated every two weeks), 0%; in data set [2] (FUra 25 mg/kg i.p. days 1 to 5, repeated every two weeks), 12.5%.
